# Reference: patent publication US20210205638A1, “PARATHYROID HORMONE AND REGENERATION OF DEGENERATIVE DISCS DISEASE” (THE JOHNS HOPKINS UNIVERSITY, priority 2017, published 2021)
# Columns and labels:
# 18-month-old mice = assay: iPTH in aged mice: PPCT of IVD and L4 trabecular bone; assay type: in vivo, mouse; details: for IVD morphology: aged mice
# Protocol: For the dosage screening experiments, 17 month old male C57BL/6J WT mice were assigned into four groups treated with different doses of PTH or vehicle; 20 μg/kg/d, 40 μg/kg/d and 80 μg/kg/d of human PTH (1-34) (Bachem Calif., Inc. King of Prussia, Pa., USA.) or vehicle groups. We chose the optimal dosage of PTH (1-34) for the rest of the experiment.
# Propagation phase contrast micro-tomography (PPCT) based on the Synchrotron radiation scanning was performed at the BL13W1 biomedical beamline in the Shanghai Synchrotron Radiation Facility (SSRF) in China (FIG. 7A). To obtain high X-ray attenuation contrast images, the monochromatic X-ray energy was adjusted to 15 keV, the scanner was set at a voltage of 15 keV, exposure time set to 2.5 s, and the sample-to-detector distance (SDD) adjusted to 30 cm and a resolution of 3.7 μm per pixel. The images were reconstructed and analyzed using the GPU-CT-Reconstruction software (applied by the BL13W1 experimental station) and the VG Studio Max 3D software (version 2.1, Volume Graphics GmbH, Germany) respectively. The region of interest was defined to cover the whole L3-L4 compartment. The 3D quantitative analysis of IVDs was performed with the commercially available Image Pro Analyzer 3D software (Version 7.0, Media Cybernetics, Inc., USA). The 3D structural parameters analyzed for the mean height and volume and thickness distribution of IVDs. The trabecular bone of L4 was segmented from the bone marrow and analyzed to determine the trabecular bone volume fraction (BV/TV), trabecular thickness (Tb. Th), trabecular number (Tb. N) and trabecular separation (Tb. Sp).
# IFT88-/- mice = assay: iPTH in IFT88-/- and wild-type mice: PPCT IVD volume and IVD histological score; assay type: in vivo, mouse
# Text: Mice carrying the PTH1R gene flanked by loxP sites (PTH1R^flox/flox) were mated with Noto^Cre mice to generate mice bearing Noto^Cre and a floxed PTH1R allele in their germline. These mice were backcrossed to homozygous floxed mice (Noto^Cre/+/PTH1R^flox/+::PTH1R^flox/flox) to generate mice with inactivation of both alleles in notochord derived cells (genotype […]). Homozygous disruption of the Noto locus is perinatally lethal; viable offspring have genotypes of either Noto^Cre/+:: PTH1R^flox/flox (mice with PTH1R conditional deletion in Noto lineage cells are referred to as “[…]” in the text) or Noto^+/+:: PTH1R^flox/flox (wild-type littermates hereinafter referred to as “PTH1R^+/+” in the text). The genotype of transgenic mice was determined by PCR analyses of genomic DNA isolated from mouse tails. The floxed PTH1R allele was identified with primers lox1F (5-[…] ID NO: 1) and lox1R (5-[…] ID NO: 2). The genotyping for the Cre transgene was performed by PCR with the primers […] ID NO: 3) […] ID NO: 4). We generated Noto^Cre/+:: ROSA26-lacZ^flox/flox by crossing Noto mice with mice homozygous with a loxP-flanked DNA stop sequence, preventing expression of the downstream lacZ gene. IFT88^flox/flox mouse model has been generated as descripted. A NP tissue-specific primary cilia knock-out (KO) mouse line was generated by crossing NotoCre mice with IFT88^flox/flox mice, in which the primary cilia were deleted from the NP tissue. The loxP IFT88 allele was identified with the primers lox2F ([NT] ID NO: 5) and lox2R ([NT] ID NO: 6). The 11 month-old PTH1R^+/+ and PTH1R^-/- male mice were randomized into four groups: PTH1R^+/++PTH (1-34), PTH1R^+/++Vehicle, PTH1R^-/-+PTH (1-34) and PTH1R^-/-+Vehicle groups (n=8 per group). […] Quantitative histomorphometric analysis was conducted in a blinded fashion with Image-Pro Plus Software version 6.0 (Media Cybernetics Inc). […] Five randomly selected sections per mice in each group at L3-L4 level were chosen for quantitative histomorphometric analysis. […] The percentage area of CCN2 and ACAN positive staining was calculated by measuring the positive area to the whole area of the L3-L4 in each group. […] The images were reconstructed and analyzed using the GPU-CT-Reconstruction software (applied by the BL13W1 experimental station) and the VG Studio Max 3D software (version 2.1, Volume Graphics GmbH, Germany) respectively. […] The 3D quantitative analysis of IVDs was performed with the commercially available Image Pro Analyzer 3D software (Version 7.0, Media Cybernetics, Inc., USA). The 3D structural parameters analyzed for the mean height and volume and thickness distribution of IVDs. […]
# [1] = 18-month-old mice relative to vehicle, 40 μg/kg
# [2] = 18-month-old mice, L4 trabecular bone
smiles,measurement,setting,value
"CC[C@H](C)[C@H](NC(=O)[C@H](CCC(=O)O)NC(=O)[C@H](CO)NC(=O)[C@@H](NC(=O)[C@@H](N)CO)C(C)C)C(=O)N[C@@H](CCC(N)=O)C(=O)N[C@@H](CC(C)C)C(=O)N[C@@H](CCSC)C(=O)N[C@@H](Cc1cnc[nH]1)C(=O)N[C@@H](CC(N)=O)C(=O)N[C@@H](CC(C)C)C(=O)NCC(=O)N[C@@H](CCCCN)C(=O)N[C@@H](Cc1cnc[nH]1)C(=O)N[C@@H](CC(C)C)C(=O)N[C@@H](CC(N)=O)C(=O)N[C@@H](CO)C(=O)N[C@@H](CCSC)C(=O)N[C@@H](CCC(=O)O)C(=O)N[C@@H](CCCN=C(N)N)C(=O)N[C@H](C(=O)N[C@@H](CCC(=O)O)C(=O)N[C@@H](Cc1c[nH]c2ccccc12)C(=O)N[C@@H](CC(C)C)C(=O)N[C@@H](CCCN=C(N)N)C(=O)N[C@@H](CCCCN)C(=O)N[C@@H](CCCCN)C(=O)N[C@@H](CC(C)C)C(=O)N[C@@H](CCC(N)=O)C(=O)N[C@@H](CC(=O)O)C(=O)N[C@H](C(=O)N[C@@H](Cc1cnc[nH]1)C(=O)N[C@@H](CC(N)=O)C(=O)N[C@@H](Cc1ccccc1)C(=O)O)C(C)C)C(C)C [PTH (1-34), teriparatide]",IVD height,18-month-old mice; [1],increased
same,IVD volume,18-month-old mice; [1],increased
same,bone volume (BV/TV),18-month-old mice; [2],increase
same,connectivity (Tb. Con),18-month-old mice; [2],increase
same,IVD thickness in 3D images in five different areas,"18-month-old mice; 18-month-old mice, especially the central area of IVD",significant increase
same,IVD morphology,18-month-old mice; 40 μg/kg daily for eight weeks,significantly improved
same,IVD morphology,18-month-old mice; 80 μg/kg daily for eight weeks,significantly improved
same,improvement of IVD scores by iPTH,IFT88-/- mice; IFT88-/- mice,impaired
same,iPTH-increased IVD volume,IFT88-/- mice; IFT88-/- mice relative to wild-type mice,blunted
same,IVD scores,IFT88-/- mice; wild-type mice,improvement
same,IVD volume,IFT88-/- mice; wild-type mice,increased
